Measurements reported in patent publication US20230368862A1, “BINDING SITE IN TYPE 2 RYANODINE RECEPTOR” (The Trustees of Columbia University in the City of New York, priority 2021, published 2023).
Blank lines part the entries; values can stand above or below the compound they belong to.

Key:
[1] = molecular target: T1, PKA phosphorylated RyR2-R2474S (Homo sapiens, UniProt Q92736, R2474S); assay: Cryo-EM analysis with normalized difference in RMSD (pairwise domain comparison)
T1 construct: Each fragment was subcloned into a full-length human RYR2 construct in pCMV5 vector; made in house; host or cells: HEK293 (RyR2-R2474S, transient); E. coli BL21(DE3) (GST-calstabin-2)
Description: Each of the final samples (3 μl each) prepared in EXAMPLE 5 was applied to UltrAuFoil holey gold grids (Quantifoil R 0.6/1.0, Au 300) previously cleaned with easiGlow (PELCO). Grids were blotted with ashless filter paper (Whatman) using blot force 10 and blot time 8 s before vitrification by plunge-freezing into liquid ethane chilled with liquid nitrogen using Vitrobot Mark IV (Thermo Fisher Scientific) operated at 4° C. with 100% relative humidity.
Prepared grids were screened in-house on a Glacios Cryo-TEM (Thermo Fisher Scientific) microscope with a 200-kV x-FEG source and a Falcon 3EC direct electron detector (Thermo Fisher Scientific). Microscope operations and data collection were carried out using EPU software (Thermo Fisher Scientific). High-resolution data collection was performed at Columbia University on a Titan Krios 300-kV (Thermo Fisher Scientific) microscope equipped with an energy filter (slit width 20 eV) and a K3 direct electron detector (Gatan). Data were collected using Leginon and at a nominal magnification of ×105,000 in electron counting mode, corresponding to a pixel size of 0.83 Å. The electron dose rate was set to 16 e^−/pixel per second with 2.5-s exposures for a total dose of 50 to 60 e/A2.
Cryo-EM data processing was performed in cryoSPARC with image stacks aligned using Patch motion, defocus value estimation by Patch CTF estimation. Particle picking was performed using the template picker with templates created from preexisting cryo-EM maps. Particles were subjected to 2D classification in cryoSPARC with 100 classes. Particles from the highest-resolution classes were pooled for ab initio 3D reconstruction with a single class followed by homogeneous refinement with C4 symmetry imposed. 3D variability and further clustering were performed using a mask comprising the TM domain to separate those particles in the closed and open states followed by heterogeneous refinement with four classes to further select the best particles. C4 symmetry expansion was performed before local refinements. The masks used were TaF+TM+CTD domains (residues 4131 to 4967), calstabin-2+NTD+SPRY domains (residues 1 to 1646), JSol+CSol domains (residues 1700 to 2476, 3590 to 4130), and BSol domain (residues 2400 to 3344). Only the TaF+TM+CTD mask used C4 symmetry. Smaller masks, for a second round of 3D variability analysis, clustering, and local refinement, were RY1&2 (residues 862 to 1076), RY3&4 (residues 2685 to 2909), and BSol2 (residues 3042 to 3344). Local refinements used a dynamical mask with a far distance of 10, 50, and 150 Å for the initial masks, small masks, and expanded RY3&4 mask for comparing the effect of RY3&4 stabilization, respectively. The resulting maps were combined in ChimeraX to generate a composite map before calibration of the pixel size using correlation coefficients with a map generated from the crystal structure of the NTD of RyR2 (PDB ID: 4JKQ). The pixel size was altered by 0.001 Å per step, up to 20 steps in each direction.
An initial model of RYR2 was generated with Phenix tool sculptor from a 2.45-Å structure of RyR1 (PDB ID: 7TZC). Truncated residues were manually corrected to obtain the full side chains. Only domains RY1&2 and RY3&4, which show weak cryo-EM density and confidence in structure, were based on crystallographic structures. The initial model of RyR2 RY1&2 domain was generated with Phenix tool sculptor from the RY1&2 domain of RyR3 with ATP (PDB ID: […]). The model of RyR2 RY3&4 domain was obtained as is (PDB ID: 4ETV). Calstabin-2 and CaM models were obtained as is (PDB ID: 6JI8). Model building was performed in Coot and refined with Phenix tool RealSpaceRefine.
This analysis determined the conformation of a certain query domain from a model X relative to reference closed and open states of RyR2. To this end, the RMSD of Ca of the query domain was measured between model X and the closed state (RMSDX-closed), and between model X and the open state (RMSDX-open). […]

Ryr2^R2474S/WT mice = assay: Telemetric electrocardiogram recordings during epinephrine arrhythmia provocation; format: in vivo
Description: Ryr2^R2474S/WT mice were implanted with radio telemetry transmitters (Data Sciences International). Briefly, the transmitter (PhysioTel, ETA-F10 transmitter) was inserted in mice subcutaneously along the back under general anesthesia (5% inhaled isoflurane). Two electrocardiogram (ECG) electrodes were placed hypodermically in the region of the right shoulder (negative pole) and toward the lower left chest (positive pole) to approximate lead II of the Einthoven surface ECG. During the procedure, respiratory and cardiac rhythm, adequacy of anesthetic depth, muscle relaxation, body temperature, and analgesia were monitored to avoid anesthesia-related complications. Postoperative pain was considered during a 1-week post-implantation period, and carprofen (5 mg/kg, subcutaneously) was given. A minimum period of 2 weeks was allowed for recovery from the surgery. Animals were housed in individual stainless-steel cages for telemetry recordings. Environmental parameters were recorded continuously and maintained within a fixed range: room temperature at 15° C. to 21° C. and 45 to 65% relative humidity. The artificial day/night cycle was 12-hour light/12-hour dark with light on at 0700 hours. Drinking water was provided ad libitum. Solid diet ([…]) was given daily in the morning. ECG waveforms were continuously recorded at a sampling rate of 2000 Hz using a signal transmitter-receiver (RPC-1) connected to a data acquisition system (Ponemah system, Data Sciences International). Compound 1 (50 mg/kg per day) was given in drinking water for 2 weeks before ECG recordings. Mice were recorded for 1 hour at baseline and then given epinephrine injection (1 mg/kg, intraperitoneally) and recorded for another 2 hours. The animals used in the study were maintained and studied according to protocols approved by the Institutional Animal Care and Use Committee of Columbia University (reference no. AC-AABP1551).

RyR2-R2474S channels = molecular target: T2, RyR2-R2474S channels (Mus musculus, UniProt E9Q401, R2473S); assay: SR Ca^2+ leak assay in heart microsomes (Fluo-4); format: biochemical; conditions: heart microsomes from mice treated with epinephrine and Compound 1 in vivo
T2 construct: Cardiac muscle SR microsomes were prepared by homogenizing heart samples on ice; from tissue; host or cells: heart of Ryr2 R2474S/WT mice (SR microsomes)
Description: Ca^2+ leak was measured in microsomes from heart lysates isolated from control Ryr^2R2474S/WT mice, Ryr^2R2474S/WT mice treated with epinephrine, and Ryr^2R2474S/WT mice treated with epinephrine and Compound 1 in EXAMPLE 8. […] Cardiac muscle SR microsomes were prepared by homogenizing heart samples on ice using a Teflon glass homogenizer (50 times) with 2 volumes of 20 mM tris-maleate (pH 7.4), 1 mM EDTA, 1 mM DTT, and protease inhibitors (Roche). Homogenate was then spun by centrifuge at 4000 g for 15 min at 4° C., and the resultant supernatant was spun by centrifuge at 50,000 g for 45 min at 4° C. Pellets were resuspended in lysis buffer containing 300 mM sucrose. Microsomes ([…]) were diluted into a buffer (pH 7.2) containing 8 mM K-phosphocreatine, and creatine kinase (2 U/ml), mixed with 3 μM Fluo-4 and added to multiple wells of a 96-well plate. Ca^2+ loading of the microsomes was initiated by adding 1 mM ATP. After Ca^2+ uptake (50 s), 3 μM thapsigargin was added to inhibit the Ca^2+ reuptake by SERCA. SR Ca^2+ leak was measured by the increase in intensity of the Fluo-4 signal (measured in a Tecan fluorescence plate reader). Ca^2+ leak was quantified as the difference between the average Fluo-4 signal before and after addition of thapsigargin. Graphs were plotted with GraphPad Prism software.

recombinant RyR2 = molecular target: T3, recombinant RyR2 (Homo sapiens, UniProt Q92736); assay: Single channel recordings in planar lipid bilayers (open probability); format: biochemical; conditions: xanthine 10 μM; Ca2+ 150 nM
T3 construct: expressed in transfected cells; host or cells: HEK293
Description: To confirm the functional role of xanthine in RyR2, single-channel experiments were performed. ER vesicles from HEK293 cells expressing RyR2 were prepared by homogenizing cell pellets on ice using a Teflon glass homogenizer with two volumes of solution containing 20 mM tris-maleate (pH 7.4), 1 mM EDTA, 1 mM DTT, and protease inhibitors (Roche). Homogenate was then spun by centrifuge at 4000 g for 15 min at 4° C., and the resulting supernatant was spun by centrifuge at 40,000 g for 30 min at 4° C. The final pellet, containing the ER fractions, was resuspended and aliquoted in 250 mM sucrose, 10 mM Mops (pH 7.4), 1 mM EDTA, 1 mM DTT, and protease inhibitors. Samples were frozen in liquid nitrogen and stored at −80° C.
ER vesicles were fused to planar lipid bilayers formed by painting a lipid mixture of phosphatidylethanolamine and PC (Avanti Polar Lipids) in a 5:3 ratio in decane across a […] in polysulfonate cups (Warner Instruments) separating two chambers. […] The concentration of free Ca^2+ in the cis chamber was calculated as previously described. […] Single-channel currents were recorded at 0 mV using Bilayer Clamp BC-525D (Warner Instruments), filtered at 1 kHz using Low-Pass Bessel Filter 8 Pole (Warner Instruments), and digitized at 4 kHz. […] The recordings were analyzed using Clampfit 10.1 (Molecular Devices) and GraphPad Prism software.

[2] = P-RyR2-R2474S + Cpd1 vs closed/open PKA RyR2, 0 = closed state, 1 = open state
[3] = 50 mg/kg per day in drinking water for 2 weeks, epinephrine 1 mg/kg i.p.

T1 sequence (Q92736 whole entry R2474S, the tested form may be a part): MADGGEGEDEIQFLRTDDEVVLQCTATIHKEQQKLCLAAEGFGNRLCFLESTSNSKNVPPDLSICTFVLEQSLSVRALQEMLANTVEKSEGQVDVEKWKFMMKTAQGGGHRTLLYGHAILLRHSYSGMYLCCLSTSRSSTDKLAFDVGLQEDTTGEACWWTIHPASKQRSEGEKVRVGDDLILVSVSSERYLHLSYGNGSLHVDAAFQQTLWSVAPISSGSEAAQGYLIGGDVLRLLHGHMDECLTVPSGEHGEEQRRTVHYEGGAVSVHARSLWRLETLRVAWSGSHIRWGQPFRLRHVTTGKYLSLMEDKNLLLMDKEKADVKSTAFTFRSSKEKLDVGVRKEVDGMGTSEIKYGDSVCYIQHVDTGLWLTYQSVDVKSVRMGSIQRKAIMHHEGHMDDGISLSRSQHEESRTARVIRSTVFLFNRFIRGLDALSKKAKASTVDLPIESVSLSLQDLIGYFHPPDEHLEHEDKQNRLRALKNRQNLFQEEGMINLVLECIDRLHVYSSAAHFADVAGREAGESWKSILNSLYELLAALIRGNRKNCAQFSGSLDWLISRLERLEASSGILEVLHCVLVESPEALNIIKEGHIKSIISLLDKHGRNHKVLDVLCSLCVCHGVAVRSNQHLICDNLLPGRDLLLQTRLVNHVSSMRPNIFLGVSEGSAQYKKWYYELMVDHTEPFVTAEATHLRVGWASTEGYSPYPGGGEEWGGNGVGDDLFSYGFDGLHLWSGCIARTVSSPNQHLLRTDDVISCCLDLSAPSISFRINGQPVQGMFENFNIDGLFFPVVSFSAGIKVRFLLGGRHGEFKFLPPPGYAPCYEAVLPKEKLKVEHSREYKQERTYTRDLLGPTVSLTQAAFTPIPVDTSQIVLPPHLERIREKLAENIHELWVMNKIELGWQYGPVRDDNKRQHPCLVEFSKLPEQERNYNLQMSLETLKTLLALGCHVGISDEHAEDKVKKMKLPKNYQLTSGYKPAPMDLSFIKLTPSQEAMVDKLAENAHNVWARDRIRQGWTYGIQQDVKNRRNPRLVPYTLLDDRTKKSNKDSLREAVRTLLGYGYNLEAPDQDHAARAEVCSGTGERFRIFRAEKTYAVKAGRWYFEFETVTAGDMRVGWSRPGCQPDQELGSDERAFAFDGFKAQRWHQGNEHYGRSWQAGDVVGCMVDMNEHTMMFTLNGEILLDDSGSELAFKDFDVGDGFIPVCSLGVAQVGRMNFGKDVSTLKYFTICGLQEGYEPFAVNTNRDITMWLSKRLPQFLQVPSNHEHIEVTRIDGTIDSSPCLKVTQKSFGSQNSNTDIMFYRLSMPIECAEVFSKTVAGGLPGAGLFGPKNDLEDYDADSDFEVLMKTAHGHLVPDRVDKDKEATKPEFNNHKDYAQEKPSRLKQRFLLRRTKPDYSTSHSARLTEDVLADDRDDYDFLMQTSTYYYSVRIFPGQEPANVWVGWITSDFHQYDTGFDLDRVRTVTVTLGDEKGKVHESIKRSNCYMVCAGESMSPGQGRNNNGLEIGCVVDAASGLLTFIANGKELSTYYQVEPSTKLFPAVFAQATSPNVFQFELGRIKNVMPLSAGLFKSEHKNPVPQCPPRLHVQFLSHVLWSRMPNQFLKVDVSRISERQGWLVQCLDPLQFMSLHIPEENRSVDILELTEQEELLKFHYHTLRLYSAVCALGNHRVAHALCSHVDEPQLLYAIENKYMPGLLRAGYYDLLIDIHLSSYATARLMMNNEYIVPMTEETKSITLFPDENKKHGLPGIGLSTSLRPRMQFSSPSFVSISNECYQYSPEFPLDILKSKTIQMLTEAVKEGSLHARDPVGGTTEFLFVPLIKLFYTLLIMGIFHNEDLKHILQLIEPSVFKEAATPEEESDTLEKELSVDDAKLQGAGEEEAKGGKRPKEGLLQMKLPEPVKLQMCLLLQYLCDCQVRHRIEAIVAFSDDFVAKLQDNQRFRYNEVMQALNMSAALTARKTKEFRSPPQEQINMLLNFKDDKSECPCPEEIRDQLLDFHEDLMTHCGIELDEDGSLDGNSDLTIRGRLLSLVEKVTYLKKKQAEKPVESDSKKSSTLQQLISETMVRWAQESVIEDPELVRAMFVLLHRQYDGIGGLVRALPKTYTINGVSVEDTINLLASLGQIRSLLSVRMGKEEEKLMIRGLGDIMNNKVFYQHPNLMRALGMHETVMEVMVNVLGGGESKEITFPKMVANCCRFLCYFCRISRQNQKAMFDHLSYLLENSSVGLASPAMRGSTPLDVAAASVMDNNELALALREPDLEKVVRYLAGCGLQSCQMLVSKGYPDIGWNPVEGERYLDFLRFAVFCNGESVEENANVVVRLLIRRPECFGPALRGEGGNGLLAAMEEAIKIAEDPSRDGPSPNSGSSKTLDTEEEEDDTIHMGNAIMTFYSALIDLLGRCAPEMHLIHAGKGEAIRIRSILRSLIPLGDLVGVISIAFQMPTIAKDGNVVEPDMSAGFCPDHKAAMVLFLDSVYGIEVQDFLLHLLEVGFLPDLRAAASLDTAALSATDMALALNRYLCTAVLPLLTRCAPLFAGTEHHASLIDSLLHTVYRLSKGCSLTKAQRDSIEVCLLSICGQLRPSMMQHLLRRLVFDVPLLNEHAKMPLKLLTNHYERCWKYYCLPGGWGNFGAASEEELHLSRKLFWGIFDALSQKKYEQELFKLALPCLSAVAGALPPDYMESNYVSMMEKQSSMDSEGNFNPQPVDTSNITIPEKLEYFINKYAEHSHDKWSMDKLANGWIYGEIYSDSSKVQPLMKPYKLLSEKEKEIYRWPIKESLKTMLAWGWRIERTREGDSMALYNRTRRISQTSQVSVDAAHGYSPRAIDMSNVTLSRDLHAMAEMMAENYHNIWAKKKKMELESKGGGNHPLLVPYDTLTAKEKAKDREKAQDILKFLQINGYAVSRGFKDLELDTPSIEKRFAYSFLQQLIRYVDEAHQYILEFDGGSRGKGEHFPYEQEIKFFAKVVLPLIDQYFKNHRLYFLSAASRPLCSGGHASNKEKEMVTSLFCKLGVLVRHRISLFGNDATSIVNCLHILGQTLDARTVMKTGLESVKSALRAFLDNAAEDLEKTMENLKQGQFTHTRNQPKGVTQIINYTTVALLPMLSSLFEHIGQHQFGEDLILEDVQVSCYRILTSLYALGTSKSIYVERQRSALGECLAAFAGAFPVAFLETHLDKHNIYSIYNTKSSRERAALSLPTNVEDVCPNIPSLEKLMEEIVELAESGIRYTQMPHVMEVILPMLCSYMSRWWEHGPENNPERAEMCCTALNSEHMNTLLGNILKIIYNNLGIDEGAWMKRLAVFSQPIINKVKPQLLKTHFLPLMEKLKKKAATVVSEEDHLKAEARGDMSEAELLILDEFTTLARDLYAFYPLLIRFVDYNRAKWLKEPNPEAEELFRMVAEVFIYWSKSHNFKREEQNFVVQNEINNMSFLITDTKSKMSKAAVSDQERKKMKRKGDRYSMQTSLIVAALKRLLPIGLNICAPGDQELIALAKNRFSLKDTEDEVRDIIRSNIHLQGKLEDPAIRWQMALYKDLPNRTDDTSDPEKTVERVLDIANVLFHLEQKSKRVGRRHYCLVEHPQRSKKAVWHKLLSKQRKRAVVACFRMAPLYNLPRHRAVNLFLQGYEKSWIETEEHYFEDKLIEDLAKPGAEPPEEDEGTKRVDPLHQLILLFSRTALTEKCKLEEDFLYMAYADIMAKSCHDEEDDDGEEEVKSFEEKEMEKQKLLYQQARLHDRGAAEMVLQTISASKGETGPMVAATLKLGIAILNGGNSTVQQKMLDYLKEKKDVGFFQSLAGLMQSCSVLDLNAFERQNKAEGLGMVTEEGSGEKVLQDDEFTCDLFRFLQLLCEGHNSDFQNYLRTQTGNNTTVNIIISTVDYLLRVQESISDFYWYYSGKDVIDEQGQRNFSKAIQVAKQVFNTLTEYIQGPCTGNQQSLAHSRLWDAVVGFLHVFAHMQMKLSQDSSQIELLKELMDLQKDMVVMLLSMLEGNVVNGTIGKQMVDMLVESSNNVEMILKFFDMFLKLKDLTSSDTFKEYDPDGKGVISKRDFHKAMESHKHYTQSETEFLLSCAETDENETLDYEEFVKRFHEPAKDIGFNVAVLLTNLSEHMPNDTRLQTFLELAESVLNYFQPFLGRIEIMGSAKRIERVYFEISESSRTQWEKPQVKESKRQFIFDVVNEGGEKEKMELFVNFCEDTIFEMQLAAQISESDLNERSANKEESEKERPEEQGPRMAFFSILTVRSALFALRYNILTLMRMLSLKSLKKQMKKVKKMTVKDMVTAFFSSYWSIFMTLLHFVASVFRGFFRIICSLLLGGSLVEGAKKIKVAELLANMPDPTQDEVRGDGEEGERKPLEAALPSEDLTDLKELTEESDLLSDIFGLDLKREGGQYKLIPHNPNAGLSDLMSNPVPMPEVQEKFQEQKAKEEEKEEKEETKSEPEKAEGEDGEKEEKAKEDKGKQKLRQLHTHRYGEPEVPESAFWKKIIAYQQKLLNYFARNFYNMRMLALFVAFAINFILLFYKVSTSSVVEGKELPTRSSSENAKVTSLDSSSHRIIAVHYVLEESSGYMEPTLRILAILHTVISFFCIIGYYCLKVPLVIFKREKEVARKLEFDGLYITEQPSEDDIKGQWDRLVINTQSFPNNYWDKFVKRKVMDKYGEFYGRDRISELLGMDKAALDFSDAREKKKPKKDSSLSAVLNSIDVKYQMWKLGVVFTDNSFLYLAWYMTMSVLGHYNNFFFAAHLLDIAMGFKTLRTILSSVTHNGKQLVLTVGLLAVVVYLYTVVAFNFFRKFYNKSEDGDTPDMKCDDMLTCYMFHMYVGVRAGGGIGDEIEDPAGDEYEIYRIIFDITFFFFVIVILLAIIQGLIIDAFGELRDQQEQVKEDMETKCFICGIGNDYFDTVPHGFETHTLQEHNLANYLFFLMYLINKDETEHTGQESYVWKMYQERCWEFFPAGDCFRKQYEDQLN
T1 sequence (P68106 whole entry partner, the tested form may be a part): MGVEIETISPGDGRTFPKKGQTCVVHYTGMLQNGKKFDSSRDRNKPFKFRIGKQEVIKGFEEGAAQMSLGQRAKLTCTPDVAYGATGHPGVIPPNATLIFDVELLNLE
T3 sequence (Q92736 whole entry): as the sequence (Q92736 whole entry R2474S, the tested form may be a part) above, with S2474R counted along it

SMILES: COc1ccc2c(c1)CN(Cc1ccc(C(=O)O)cc1)CCS2 [Compound 1]
- effect on the primed state of PKA-phosphorylated RyR2-R2474S (cryo-EM structure comparison) ([1]; 10 mM ATP, 150 nM free Ca2+, 500 μM xanthine): partially reversed the primed state
- Normalized difference in RMSD, BSol [1, 2]: 0.32
- Normalized difference in RMSD, BSol2 [1, 2]: 0.40
- Normalized difference in RMSD, NTD [1, 2]: 0.42
- Normalized difference in RMSD, SPRY [1, 2]: 0.41
- reduction toward the closed state in RMSD analysis compared to primed PKA-phosphorylated RyR2-R2474S ([1]; in some domains): more than 50%
- RMSD Cα BSol, P-RyR2-R2474S + Cpd1 (PDB:7UA1) vs P-RyR2-C (PDB:7U9Q) ([1]; vs closed PKA RyR2): 1.61 ± Å
- RMSD Cα NTD, P-RyR2-R2474S + Cpd1 (PDB:7UA1) vs P-RyR2-C (PDB:7U9Q) ([1]; vs closed PKA RyR2): 1.20 ± Å
- RMSD Cα SPRY, P-RyR2-R2474S + Cpd1 (PDB:7UA1) vs P-RyR2-C (PDB:7U9Q) ([1]; vs closed PKA RyR2): 0.88 ± Å
- RMSD Cα BSol2, P-RyR2-R2474S + Cpd1 (PDB:7UA1) vs P-RyR2-C (PDB:7U9Q) ([1]; vs closed PKA RyR2, 10 mM NaATP, 500 μM xanthine, 150 nM free Ca2+): 3.08 ± Å
- RMSD Cα CSol, P-RyR2-R2474S + Cpd1 (PDB:7UA1) vs P-RyR2-C (PDB:7U9Q) ([1]; vs closed PKA RyR2, aligned control domain, used as error): 0.53 Å
- RMSD Cα BSol2, P-RyR2-R2474S + Cpd1 (PDB:7UA1) vs P-RyR2-O (PDB:7U9R) ([1]; vs open PKA RyR2): 4.63 ± Å
- RMSD Cα BSol, P-RyR2-R2474S + Cpd1 (PDB:7UA1) vs P-RyR2-O (PDB:7U9R) ([1]; vs open PKA RyR2): 3.36 ± Å
- RMSD Cα NTD, P-RyR2-R2474S + Cpd1 (PDB:7UA1) vs P-RyR2-O (PDB:7U9R) ([1]; vs open PKA RyR2): 1.66 ± Å
- RMSD Cα SPRY, P-RyR2-R2474S + Cpd1 (PDB:7UA1) vs P-RyR2-O (PDB:7U9R) ([1]; vs open PKA RyR2): 1.25 ± Å
- RMSD Cα CSol, P-RyR2-R2474S + Cpd1 (PDB:7UA1) vs P-RyR2-O (PDB:7U9R) ([1]; vs open PKA RyR2, aligned control domain, used as error): 0.41 Å
- frequency of ventricular tachycardia (Ryr2^R2474S/WT mice; [3]): reduced the frequency of ventricular tachycardia
- sudden cardiac death (SCD) (Ryr2^R2474S/WT mice; [3]): prevented sudden cardiac death
- sustained ventricular tachycardia (sVT) (Ryr2^R2474S/WT mice; 50 mg/kg/day in drinking water, epinephrine 1 mg/kg): prevented sVT
- SR Ca^2+ leak (increase in Fluo-4 signal after thapsigargin) (RyR2-R2474S channels): prevented SR Ca^2+ leak

- increase in the open probability of RyR2 (recombinant RyR2): ~25 fold
SMILES: O=c1[nH]c(=O)c2[nH]cnc2[nH]1 [xanthine]
